Data from ChEMBL document CHEMBL1201862, “PubChem BioAssay data set” (2004).
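Test compounds were applied to cells in 96-well plates for 48 hours at 5 doses. GI50 = concentration required for 50% inhibition of growth.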 Active and inactive are the calls of the source. Rule as the data show it: active = GI50 up to about 1.1 µM and inactive = higher. Residues, ends and D or L forms follow the SMILES beside them. *: point of attachment. Boc = CC(C)(C)OC(=O)*; OBn = c1ccc(CO*)cc1

Legend:
Experiment in all cases: growth of human tumour cells (NCI), 48 h
NCI-H522 = test system: NCI-H522
LOX IMVI = test system: LOX IMVI
K562 = test system: K562
SF-539 = test system: SF-539
MOLT-4 = test system: MOLT-4
Malme-3M = test system: Malme-3M
NCI-H23 = test system: NCI-H23
KM12 = test system: KM12
TK-10 = test system: TK-10
CAKI-1 = test system: CAKI-1
A549 = test system: A549
HL-60 = test system: HL-60
786-0 = test system: 786-0
OVCAR-3 = test system: OVCAR-3
MDA-N = test system: MDA-N
T47D = test system: T47D
NCI/ADR-RES = test system: NCI/ADR-RES
M14 = test system: M14

Measured: GI50

O=C(/C=C/c1ccccc1O)c1ccccc1O
inactive: NCI-H522 > 100 µM | LOX IMVI > 100 µM | K562 19.8 µM | SF-539 > 100 µM | MOLT-4 18.7 µM | Malme-3M > 100 µM | NCI-H23 76.2 µM | KM12 > 100 µM | TK-10 > 100 µM | CAKI-1 > 100 µM | A549 > 100 µM | HL-60 > 100 µM | 786-0 > 100 µM | OVCAR-3 > 100 µM

COC(=O)C1CCC(=O)N1CN(C(C)=O)c1cc(OC)ccc1OC (configuration not stated)
inactive: NCI-H522 > 100 µM | MDA-N > 100 µM | LOX IMVI > 100 µM | K562 > 100 µM | SF-539 > 100 µM | MOLT-4 > 100 µM | Malme-3M > 100 µM | NCI-H23 > 100 µM | KM12 > 100 µM | TK-10 > 100 µM | CAKI-1 > 100 µM | A549 > 100 µM | T47D > 100 µM | HL-60 > 100 µM | NCI/ADR-RES > 100 µM | 786-0 > 100 µM | OVCAR-3 > 100 µM | M14 > 100 µM

COc1cc2c(c(OC)c1OC)C(=O)[C@H](O)[C@H]2NC(N)=O
inactive: NCI-H522 > 100 µM | MDA-N > 100 µM | LOX IMVI 72.1 µM | K562 > 100 µM | SF-539 > 100 µM | MOLT-4 95.9 µM | Malme-3M > 100 µM | NCI-H23 53.8 µM | KM12 > 100 µM | TK-10 > 100 µM | CAKI-1 90.6 µM | A549 > 100 µM | HL-60 90.8 µM | NCI/ADR-RES > 100 µM | 786-0 > 100 µM | OVCAR-3 82 µM | M14 47.6 µM

O=C1OCCC[C@H]2O[C@@H](COCc3ccccc3)C[C@@H]12
inactive: MDA-N > 100 µM | K562 > 100 µM | SF-539 > 100 µM | MOLT-4 > 100 µM | NCI-H23 > 100 µM | KM12 > 100 µM | TK-10 > 100 µM | CAKI-1 > 100 µM | A549 > 100 µM | T47D > 100 µM | HL-60 > 100 µM | NCI/ADR-RES > 100 µM | 786-0 > 100 µM | OVCAR-3 > 100 µM | M14 > 100 µM

CO[C@]12CC(=O)C3(C(C[C@H]4CC5CC[C@H]6C[C@@H](OC(C)=O)CC[C@]6(OC(C)=O)C5C[C@@]43C)C1)C1C[C@H]3[C@@H]4CC[C@H]5C[C@@H](OC(C)=O)CC[C@]5(OC(C)=O)[C@H]4CC[C@]3(C)C12 (some centres not stated)
inactive: MDA-N 98.2 µM | LOX IMVI 89.7 µM | K562 54.6 µM | SF-539 > 100 µM | MOLT-4 51.1 µM | Malme-3M > 100 µM | NCI-H23 83.4 µM | KM12 46.8 µM | TK-10 > 100 µM | CAKI-1 > 100 µM | A549 61.2 µM | T47D 37 µM | NCI/ADR-RES 43.6 µM | 786-0 64.4 µM | OVCAR-3 > 100 µM | M14 > 100 µM

CC1=C(C(N)=O)C(c2ccncc2)C(C#N)C(=O)N1 (configuration not stated)
inactive: LOX IMVI > 100 µM | K562 > 100 µM | SF-539 > 100 µM | MOLT-4 > 100 µM | NCI-H23 > 100 µM | KM12 > 100 µM | TK-10 > 100 µM | CAKI-1 > 100 µM | T47D > 100 µM | HL-60 > 100 µM | 786-0 > 100 µM | M14 > 100 µM

CC1CC(NN(C)C)C2(C(N)=O)C(N)=NC(=O)C12C#N (configuration not stated)
inactive: NCI-H522 > 100 µM | MDA-N > 100 µM | LOX IMVI > 100 µM | K562 > 100 µM | SF-539 > 100 µM | MOLT-4 > 100 µM | Malme-3M > 100 µM | NCI-H23 > 100 µM | KM12 > 100 µM | TK-10 > 100 µM | CAKI-1 > 100 µM | A549 > 100 µM | T47D > 100 µM | HL-60 > 10 µM | NCI/ADR-RES > 100 µM | 786-0 > 100 µM | M14 > 100 µM

CC1(C)OC2C(CCP(=O)(O)O)OC(c3nc(C(N)=O)cs3)C2O1 (configuration not stated)
inactive: NCI-H522 > 100 µM | LOX IMVI > 100 µM | K562 > 100 µM | MOLT-4 > 100 µM | Malme-3M > 100 µM | NCI-H23 > 100 µM | KM12 > 100 µM | TK-10 > 100 µM | CAKI-1 > 100 µM | A549 > 100 µM | 786-0 > 100 µM | M14 > 100 µM

CCN(CC)CCCCC1CCN(CC(=O)N2c3ccccc3NC(=O)CC2C)CC1 (configuration not stated)
inactive: NCI-H522 30.3 µM | LOX IMVI 19.4 µM | K562 > 100 µM | SF-539 > 100 µM | MOLT-4 > 100 µM | Malme-3M > 100 µM | NCI-H23 > 100 µM | KM12 > 100 µM | TK-10 > 100 µM | CAKI-1 > 100 µM | A549 > 100 µM | HL-60 64.1 µM | 786-0 > 100 µM | OVCAR-3 > 100 µM | M14 > 100 µM

CCCCCCCCCCCCCC(=O)OCC1OC(n2cc(F)c(=O)[nH]c2=O)C(N)C(OC(=O)CCCCCCCCCCCCC)C1O (configuration not stated)
inactive: NCI-H522 > 100 µM | LOX IMVI > 100 µM | K562 > 100 µM | SF-539 42.7 µM | MOLT-4 > 100 µM | Malme-3M > 100 µM | NCI-H23 > 100 µM | KM12 > 100 µM | TK-10 > 100 µM | CAKI-1 > 100 µM | A549 > 100 µM | HL-60 > 100 µM | 786-0 > 100 µM | OVCAR-3 > 100 µM | M14 > 100 µM

C=C(Br)C[N+]12CN3CN(CN(C3)C1)C2
inactive: NCI-H522 > 100 µM | MDA-N > 100 µM | LOX IMVI > 100 µM | K562 > 100 µM | SF-539 > 100 µM | MOLT-4 > 100 µM | Malme-3M > 100 µM | NCI-H23 > 100 µM | KM12 > 100 µM | CAKI-1 > 100 µM | A549 > 100 µM | T47D > 100 µM | HL-60 > 100 µM | NCI/ADR-RES > 100 µM | 786-0 > 100 µM | OVCAR-3 > 100 µM | M14 > 100 µM

O=C(O)CCCSC(=O)Nc1ccc(/N=N/c2ccccc2)cc1
inactive: NCI-H522 > 100 µM | LOX IMVI > 100 µM | K562 65.9 µM | SF-539 > 100 µM | MOLT-4 9.68 µM | NCI-H23 > 100 µM | KM12 > 100 µM | TK-10 > 100 µM | CAKI-1 > 100 µM | A549 > 100 µM | 786-0 > 100 µM | OVCAR-3 > 100 µM | M14 > 100 µM

Cc1ccc(-c2nnc(CCCCCCCCc3nnc(-c4ccc(C)cc4O)n3N)n2N)c(O)c1
inactive: NCI-H522 > 100 µM | MDA-N > 100 µM | LOX IMVI > 100 µM | SF-539 > 100 µM | MOLT-4 33 µM | Malme-3M > 100 µM | NCI-H23 > 100 µM | KM12 > 100 µM | TK-10 > 100 µM | CAKI-1 > 100 µM | A549 > 100 µM | T47D 56.5 µM | HL-60 > 10 µM | NCI/ADR-RES > 100 µM | 786-0 85.1 µM | OVCAR-3 > 100 µM | M14 > 100 µM

Cc1ccc2c(c1)C(=O)C1(Cc3ccccc3C1=O)C2 (configuration not stated)
inactive: NCI-H522 > 100 µM | MDA-N > 100 µM | LOX IMVI > 100 µM | K562 > 100 µM | SF-539 > 100 µM | MOLT-4 > 100 µM | Malme-3M > 100 µM | NCI-H23 > 100 µM | KM12 > 100 µM | TK-10 > 100 µM | A549 > 100 µM | T47D > 100 µM | HL-60 > 100 µM | NCI/ADR-RES > 100 µM | 786-0 > 100 µM | OVCAR-3 > 100 µM | M14 > 100 µM

Cc1cc(-c2ccccc2)cc2[n+]1CC=C2.[O-][Cl+3]([O-])([O-])[O-]
inactive: NCI-H522 39.6 µM | LOX IMVI > 100 µM | SF-539 > 100 µM | Malme-3M 75 µM | NCI-H23 59.2 µM | KM12 > 100 µM | TK-10 46.6 µM | CAKI-1 > 100 µM | A549 > 100 µM | HL-60 72.3 µM | 786-0 > 100 µM | M14 > 100 µM

CC(=O)O[C@H]1C(=O)[C@@]2(C)C(C(OC(=O)c3ccccc3)C3[C@@H](O)C(OC(=O)[C@@H](O)[C@H](NC(=O)c4ccccc4)c4ccc(C(F)(F)F)cc4)C(C)=C1C3(C)C)[C@]1(OC(C)=O)CO[C@@H]1C[C@@H]2O (some centres not stated)
inactive: NCI-H522 7.59 µM | LOX IMVI 16.1 µM | K562 12.4 µM | SF-539 9.98 µM | MOLT-4 11 µM | Malme-3M > 25 µM | NCI-H23 > 25 µM | TK-10 > 25 µM | CAKI-1 > 25 µM | A549 17.9 µM | HL-60 7.98 µM | 786-0 > 25 µM | OVCAR-3 17.7 µM | M14 > 25 µM

CC(C)C(NC(=O)C(Cc1ccccc1)NC(=O)OC(C)(C)C)C(=O)NCC(=O)OCc1ccccc1 (stereo not drawn) (Boc-Phe-Val-Gly-OBn; configuration not given here)
inactive: NCI-H522 6.55 µM | MDA-N 19.4 µM | LOX IMVI 14.9 µM | K562 7.76 µM | SF-539 25.3 µM | MOLT-4 18.5 µM | Malme-3M 18.5 µM | NCI-H23 16.8 µM | TK-10 13 µM | CAKI-1 18.8 µM | T47D 18.7 µM | HL-60 13.4 µM | NCI/ADR-RES > 100 µM | 786-0 17.9 µM | OVCAR-3 14.4 µM | M14 20.9 µM
